Results as given in PubChem BioAssay AID288 (DTP/NCI, 2004).
“And” between values parts separate entries of the source, which are not always exact repeats. Equal entries are not always repeated. Inconclusive results are not listed. Numbered stars: 1 amine (or outer) side, 2 acyl side, 3 side chain; on linkers, the order of the positions; unused ones are H or OH. Bridge positions count the residues as written; N and C are the ends. Square brackets hold non-standard residues; d marks the D form. Peptide text beside a SMILES is read from it. I, II: the chains in the order shown. Actinocin(1to9) = Cc1c2oc3c(C)ccc(C(=O)[*:2])c3nc-2c(C(=O)[*:1])c(N)c1=O; NMeV = CN[CH](C(=O)O)C(C)C; Aze = O=C(O)[CH]1CCN1; Sar = CNCC(=O)O

Tested on: BDF1 mice, M5076 sarcoma s.c., survival/tumor T/C
Assay: NCI In Vivo Anticancer Drug Screen. Data for tumor model Sarcoma M5076 (subcutaneous) in B6D2F1 (BDF1) mice
Experimental: The antitumor activity of compounds was measured in mice bearing transplantable tumors. Survival or tumor size were measured and the results are expressed as the measurement made in the treated group (T) divided by the measurement made in the vehicle treated control group (C). The tumor model used in this assay is Sarcoma M5076 (subcutaneous) in B6D2F1 (BDF1) mice

[1] = endpoint: median survival time, dose: 50.0 mg/kg/injection, schedule: Q01DX009 (ip), vehicle: saline with Tween-80, higher = longer survival
[2] = endpoint: median survival time, dose: 100.0 mg/kg/injection, schedule: Q01DX009 (ip), vehicle: saline with Tween-80, higher = longer survival
[3] = endpoint: median survival time, dose: 200.0 mg/kg/injection, schedule: Q01DX009 (ip), vehicle: saline with Tween-80, higher = longer survival

COc1cccc2c1C(=O)c1c(O)c3c(c(O)c1C2=O)C[C@@](O)(C(C)=O)C[C@@H]3OC1CC(N)C(O)C(C)O1 (some centres not stated)
T/C (endpoint: median survival time, dose: 0.4 mg/kg/injection, schedule: Q02DX030 (ip), vehicle: saline, higher = longer survival): 95 % of control
T/C (endpoint: median survival time, dose: 0.4 mg/kg/injection, schedule: Q04DX006 (ip), vehicle: saline, higher = longer survival): 106 % of control
T/C (endpoint: median survival time, dose: 0.8 mg/kg/injection, schedule: Q02DX030 (ip), vehicle: saline, higher = longer survival): 122 % of control
T/C (endpoint: median survival time, dose: 1.6 mg/kg/injection, schedule: Q02DX030 (ip), vehicle: saline, higher = longer survival): 104 % of control

C[C@@H](CN1CC(=O)NC(=O)C1)N1CC(=O)NC(=O)C1
T/C (endpoint: median survival time, dose: 32.0 mg/kg/injection, schedule: Q01DX009 (ip), vehicle: saline with Tween-80, higher = longer survival): 119 % of control
T/C (endpoint: median survival time, dose: 64.0 mg/kg/injection, schedule: Q01DX009 (ip), vehicle: saline with Tween-80, higher = longer survival): 108 % of control and 111 % of control
T/C (endpoint: median survival time, dose: 128.0 mg/kg/injection, schedule: Q01DX009 (ip), vehicle: saline with Tween-80, higher = longer survival): 115 % of control and 119 % of control
T/C (endpoint: median tumor weight (est.), dose: 32.0 mg/kg/injection, schedule: Q01DX009 (ip), vehicle: saline with Tween-80, higher = larger tumour): 68 % of control
T/C (endpoint: median tumor weight (est.), dose: 64.0 mg/kg/injection, schedule: Q01DX009 (ip), vehicle: saline with Tween-80, higher = larger tumour): 36 % of control and 58 % of control
T/C (endpoint: median tumor weight (est.), dose: 128.0 mg/kg/injection, schedule: Q01DX009 (ip), vehicle: saline with Tween-80, higher = larger tumour): 18 % of control and 37 % of control
T/C (endpoint: median tumor weight (est.), dose: 256.0 mg/kg/injection, schedule: Q01DX009 (ip), vehicle: saline with Tween-80, higher = larger tumour): 14 % of control

CC1(C)COCN1COCCOCN1COCC1(C)C
T/C (endpoint: median survival time, dose: 50.0 mg/kg/injection, schedule: Q04DX003 (ip), vehicle: saline, higher = longer survival): 103 % of control
T/C (endpoint: median survival time, dose: 100.0 mg/kg/injection, schedule: Q04DX003 (ip), vehicle: saline, higher = longer survival): 95 % of control

Nc1nc2c(c(=O)[nH]1)N(C=O)C(CNc1ccc(C(=O)N[C@@H](CCC(=O)O)C(=O)O)cc1)CN2 (some centres not stated)
T/C (endpoint: median survival time, dose: 50.0 mg/kg/injection, schedule: Q01DX009 (ip), vehicle: sodium bicarbonate, higher = longer survival): 101 % of control
T/C (endpoint: median survival time, dose: 100.0 mg/kg/injection, schedule: Q01DX009 (ip), vehicle: sodium bicarbonate, higher = longer survival): 96 % of control
T/C (endpoint: median survival time, dose: 200.0 mg/kg/injection, schedule: Q01DX009 (ip), vehicle: sodium bicarbonate, higher = longer survival): 101 % of control

COCC(O)Cn1ccnc1[N+](=O)[O-] (configuration not stated)
T/C (endpoint: median survival time, dose: 600.0 mg/kg/injection, schedule: Q04DX003 (ip), vehicle: saline, higher = longer survival): 105 % of control and 106 % of control
T/C (endpoint: median survival time, dose: 668.0 mg/kg/injection, schedule: Q07DX002 (ip), vehicle: saline, higher = longer survival): 97 % of control
T/C (endpoint: median survival time, dose: 1000.0 mg/kg/injection, schedule: Q04DX003 (ip), vehicle: saline, higher = longer survival): 102 % of control
T/C (endpoint: median survival time, dose: 1000.0 mg/kg/injection, schedule: Q07DX002 (ip), vehicle: saline, higher = longer survival): 119 % of control

O=CC(NC(=O)N(CCCl)N=O)C(O)C(O)C(O)CO (configuration not stated)
T/C (endpoint: mean tumor weight, dose: 0.75 mg/kg/injection, schedule: Q02DX011 (ip), vehicle: saline, higher = larger tumour): 100 % of control
T/C (endpoint: mean tumor weight, dose: 1.5 mg/kg/injection, schedule: Q02DX011 (ip), vehicle: saline, higher = larger tumour): 33 % of control
T/C (endpoint: mean tumor weight, dose: 3.0 mg/kg/injection, schedule: Q02DX011 (ip), vehicle: saline, higher = larger tumour): 6 % of control
T/C (endpoint: median survival time, dose: 4.32 mg/kg/injection, schedule: Q04DX003 (ip), vehicle: saline, higher = longer survival): 182 % of control
T/C (endpoint: median survival time, dose: 6.17 mg/kg/injection, schedule: Q04DX003 (ip), vehicle: saline, higher = longer survival): 152 % of control and 153 % of control
T/C (endpoint: median survival time, dose: 6.86 mg/kg/injection, schedule: Q01DX001 (ip), vehicle: saline, higher = longer survival): 109 % of control
T/C (endpoint: median survival time, dose: 8.82 mg/kg/injection, schedule: Q04DX003 (ip), vehicle: saline, higher = longer survival): 179 % of control and 181 % of control
T/C (endpoint: median survival time, dose: 9.8 mg/kg/injection, schedule: Q01DX001 (ip), vehicle: saline, higher = longer survival): 111 % of control and 113 % of control
T/C (endpoint: median survival time, dose: 12.6 mg/kg/injection, schedule: Q04DX003 (ip), vehicle: saline, higher = longer survival): 186 % of control and 188 % of control
T/C (endpoint: median survival time, dose: 18.0 mg/kg/injection, schedule: Q04DX003 (ip), vehicle: saline, higher = longer survival): 205 % of control
T/C (endpoint: median survival time, dose: 20.0 mg/kg/injection, schedule: Q01DX001 (ip), vehicle: saline, higher = longer survival): 155 % of control and 156 % of control
T/C (endpoint: median tumor weight (est.), dose: 0.75 mg/kg/injection, schedule: Q02DX011 (ip), vehicle: saline, higher = larger tumour): 118 % of control
T/C (endpoint: median tumor weight (est.), dose: 1.5 mg/kg/injection, schedule: Q02DX011 (ip), vehicle: saline, higher = larger tumour): 5 % of control
T/C (endpoint: median tumor weight (est.), dose: 3.0 mg/kg/injection, schedule: Q02DX011 (ip), vehicle: saline, higher = larger tumour): 4 % of control

O=c1[nH]c(=O)n([C@H]2CCCO2)cc1F
T/C (endpoint: mean tumor weight, dose: 50.0 mg/kg/injection, schedule: Q02DX011 (ip), vehicle: alkali diluted with saline, higher = larger tumour): 150 % of control
T/C (endpoint: mean tumor weight, dose: 100.0 mg/kg/injection, schedule: Q02DX011 (ip), vehicle: alkali diluted with saline, higher = larger tumour): 93 % of control
T/C (endpoint: mean tumor weight, dose: 200.0 mg/kg/injection, schedule: Q02DX011 (ip), vehicle: alkali diluted with saline, higher = larger tumour): 74 % of control

CC1(C)OCC(CO)(Nc2nc(N3CC3)nc(N3CC3)n2)CO1
T/C (endpoint: median survival time, dose: 0.78 mg/kg/injection, schedule: Q02DX011 (ip), vehicle: saline, higher = longer survival): 98 % of control
T/C (endpoint: median survival time, dose: 1.56 mg/kg/injection, schedule: Q02DX011 (ip), vehicle: saline, higher = longer survival): 110 % of control
T/C (endpoint: median survival time, dose: 3.12 mg/kg/injection, schedule: Q02DX011 (ip), vehicle: saline, higher = longer survival): 164 % of control

Cc1c2oc3c(C)ccc(C(=O)NC4C(=O)NC(C(C)C)C(=O)N5CCCC5C(=O)N(C)CC(=O)N(C)C(C(C)C)C(=O)OC4C)c3nc-2c(C(=O)NC2C(=O)NC(C(C)C)C(=O)N3CCC3C(=O)N(C)CC(=O)N(C)C(C(C)C)C(=O)OC2C)c(N)c1=O (configuration not stated) (I: TV[Aze][Sar][NMeV] / II: TVP[Sar][NMeV]; ester I:1-I:C, II:1-II:C; linker I:N-II:N via Actinocin(1to9); configuration not given here)
T/C (endpoint: median tumor weight (est.), dose: 14.0 micrograms/kg/injection, schedule: Q02DX011 (ip), vehicle: saline, higher = larger tumour): 112 % of control
T/C (endpoint: median tumor weight (est.), dose: 23.3 micrograms/kg/injection, schedule: Q02DX011 (ip), vehicle: saline, higher = larger tumour): 99 % of control
T/C (endpoint: median tumor weight (est.), dose: 38.9 micrograms/kg/injection, schedule: Q02DX011 (ip), vehicle: saline, higher = larger tumour): 87 % of control
T/C (endpoint: median tumor weight (est.), dose: 64.8 micrograms/kg/injection, schedule: Q02DX011 (ip), vehicle: saline, higher = larger tumour): 120 % of control
T/C (endpoint: median tumor weight (est.), dose: 108.0 micrograms/kg/injection, schedule: Q02DX011 (ip), vehicle: saline, higher = larger tumour): 64 % of control
T/C (endpoint: median tumor weight (est.), dose: 180.0 micrograms/kg/injection, schedule: Q02DX011 (ip), vehicle: saline, higher = larger tumour): 96 % of control
T/C (endpoint: median tumor weight (est.), dose: 300.0 micrograms/kg/injection, schedule: Q02DX011 (ip), vehicle: saline, higher = larger tumour): 59 % of control

Cc1ccc(S(=O)(=O)O)cc1.Cc1ccc(S(=O)(=O)O)cc1.[NH-]C1CCCCC1[NH-].[Pt+2]
T/C (endpoint: median survival time, dose: 4.0 mg/kg/injection, schedule: Q02DX032 (ip), vehicle: dextrose, higher = longer survival): 94 % of control

CCC(C)C(NS(=O)(=O)c1ccc(C)cc1)C(=O)O (configuration not stated)
T/C [1]: 87 % of control
T/C [2]: 92 % of control
T/C [3]: 92 % of control

CCCCCCCCCCCCCCCc1ccc(O)cc1O
T/C (endpoint: median survival time, dose: 25.0 mg/kg/injection, schedule: Q02DX030 (ip), vehicle: saline with Tween-80, higher = longer survival): 119 % of control
T/C (endpoint: median survival time, dose: 50.0 mg/kg/injection, schedule: Q02DX030 (ip), vehicle: saline with Tween-80, higher = longer survival): 111 % of control

COC1CC23OC2(C1)C1C=CC3N(C(=O)OCC(Cl)(Cl)Cl)N1C(=O)OCC(Cl)(Cl)Cl (configuration not stated)
T/C [1]: 100 % of control and 94 % of control
T/C [2]: 102 % of control and 89 % of control
T/C [3]: 98 % of control and 110 % of control
T/C (endpoint: median tumor weight (est.), dose: 50.0 mg/kg/injection, schedule: Q01DX009 (ip), vehicle: saline with Tween-80, higher = larger tumour): 111 % of control and 93 % of control
T/C (endpoint: median tumor weight (est.), dose: 100.0 mg/kg/injection, schedule: Q01DX009 (ip), vehicle: saline with Tween-80, higher = larger tumour): 66 % of control and 77 % of control
T/C (endpoint: median tumor weight (est.), dose: 200.0 mg/kg/injection, schedule: Q01DX009 (ip), vehicle: saline with Tween-80, higher = larger tumour): 90 % of control

COC(=O)[C@@]12OC[C@]34[C@H]([C@@H](O)[C@@H]1O)[C@@]1(C)CC(=O)C(O)=C(C)[C@@H]1C[C@H]3OC(=O)[C@H](OC(=O)/C=C(\C)C(C)C)[C@@H]24
T/C (endpoint: mean tumor weight, dose: 0.5 mg/kg/injection, schedule: Q02DX011 (ip), vehicle: saline with Tween-80, higher = larger tumour): 114 % of control
T/C (endpoint: mean tumor weight, dose: 1.0 mg/kg/injection, schedule: Q02DX011 (ip), vehicle: saline with Tween-80, higher = larger tumour): 94 % of control
T/C (endpoint: mean tumor weight, dose: 2.0 mg/kg/injection, schedule: Q02DX011 (ip), vehicle: saline with Tween-80, higher = larger tumour): 26 % of control
